# Patent US10344002B2, “Compositions and methods for treating metabolic disorders” (NuSirt Sciences, Inc., priority 2016, dated 2019)
# Key:
# HepG2 liver cells [1] = conditions: same system, metformin alone; cited from earlier work
# C2C12 muscle cells [2] = assay: Fatty acid oxidation (oxygen consumption rate, Seahorse XF-24) in C2C12 muscle cells; type: cell-based; conditions: same system
# Method: Cell Culture: C2C12 muscle cells were seeded with 40,000 cells per well on Seahorse tissue culture plates in Dulbecco's modified eagle's medium (DMEM) containing 10% fetal bovine serum (FBS) and antibiotics (1% penicillin-streptomycin) at 37° C. in 5% CO2. After reaching confluency (24 hours), cells were induced to differentiate with DMEM containing 2% Horse Serum for 3 to 4 days until myotubes were fully formed. Cells were then treated with indicated concentration of Compound 2 for 24 hours.
# (§1) Compound 2 was dissolved in 100% DMSO to a stock concentration of 100 mM. This stock was further diluted to indicated concentrations in DMEM media.
# Fatty acid oxidation: Baseline and palmitate-stimulated oxygen consumption rates were measured with XF-24 analyzer (Seahorse Bioscience (now part of Agilent Technologies), MA, USA). After 24 hour treatment with Compound 2 of differentiated C2C12 muscle cells, cells were washed twice with non-buffered carbonate-free pH 7.4 low glucose (2.5 mM) DMEM containing carnitine (0.5 mM), equilibrated with 600 μl of the same media in a non-CO2 incubator for 45 minutes, and then inserted into the instrument for 15 minutes of further equilibration, followed by O2 consumption measurement. Three successive baseline measures at five-minute intervals were taken prior to injection of palmitate (200 μM final concentration). Sets of three five-minute intervals followed by 10-minute time delay were continued over a 2 to 3 hour period after palmitate injection. The area under the curve of 02 consumption change from baseline for each sample was then calculated and used for subsequent analysis. Data are represented as mean±SD for each treatment group.
# C2C12 muscle cells [3] = conditions: same system, metformin alone; cited from earlier work
# HepG2 liver cells [4] = assay: Lipid accumulation (Oil Red Staining) in HepG2 liver cells induced with high glucose plus insulin; type: cell-based; conditions: same system
# Method: Cell Culture: HepG2 liver cells were seeded with 80,000 cells per well on 24-well tissue culture plates in low glucose (5 mM) DMEM containing 10% FBS and antibiotics. After 24 hours of attachment, lipid accumulation was induced by incubating cells with high glucose (25 mM) DMEM (10% FBS, 1% Pen-Strep) plus 100 nM insulin for 48 hours. Cells were then treated with indicated concentrations of Compound 2 for an additional 48 hours.
# as §1
# Lipid accumulation (Oil Red Staining): HepG2 liver cells were seeded and treated as described above. After 48 hours of treatment with Compound 2, lipid accumulation in HepG2 was measured via Oil Red Staining. Cells were washed with phosphate buffered saline (PBS) once, then cells were fixated with 10% formalin for 1 hour. After removal of the formalin, cells were washed with ddH2O twice, then washed with 60% isopropanol. Cells were dried completely. Cells were stained with Oil Red working solution (˜5 mM) for 25 minutes, then immediately washed with ddH2O four times, then dried completely again. Oil Red dye was eluted with 100% isopropanol and absorbance was read at 500 nm. Unstained cells plus isopropanol was used as a blank and subtracted from all readings. Data are represented as mean±SEM for each treatment group.
smiles,measurement,setting,value
"CN(C)C(=N)NC(=N)N [metformin, Metformin, reference compound]",concentration below which hepatic lipids are not reduced,HepG2 liver cells [1],≥ 1 mM
same,fold higher concentration (in comparison with Compound 2) for fat oxidation,C2C12 muscle cells [2],"100,000 fold"
same,concentration below which fat oxidation is not stimulated,C2C12 muscle cells [3],≥ 1 mM
same,fold higher concentration (in comparison with Compound 2) for reducing hepatic lipids,HepG2 liver cells [4],"100,000 fold"
